# Assay results as given in PMC10754035 (Cancer Research Communications, 2023).
# Biological target: T1, KRAS G12D (Homo sapiens, UniProt P01116, G12D)
# T1 construct: Human His-tagged KRAS4B (1-169) G12D, G12V and G12C were custom synthesized; 6His (pET-28a(+)-TEV vector) (N); host or cells: E. coli BL21 star (DE3)
# Assay: Isothermal titration calorimetry, KRAS G12D
# Assay type: binding
# Conditions: ITC
# Method: All isothermal titration calorimetry (ITC) experiments were carried out at 25°C on a MicroCal PEAQ ITC Automated (Malvern). […] The final ITC buffer in the syringe and the cell was 25 mmol/L Tris HCl (pH 8.0), 100 mmol/L NaCl, 0.1 mmol/L DTT, 5% glycerol, 1% NP40, 5 mmol/L MgCl2, and 5% DMSO. ITC titration experiments were carried out with 19 injections, 2 µL per injection, and 150 seconds spacing between each injection. Reference cell power was set to 5 µcal/second and stirring speed was 750 rpm. Data were analyzed using a one site binding model with the Malvern analysis software. All ITC experiments were performed at the biophysical facility at the Institute for Structural Biology, Drug Discovery and Development (ISB3D) at Virginia Commonwealth University (Richmond, VA) and the Massey Cancer Center.
# Expression and purification of RAS proteins: Human His-tagged KRAS4B (1-169) G12D, G12V and G12C were custom synthesized and cloned into pET-28a(+)-TEV vector to generate pET-28a(+)-6His-KRAS (1-169) plasmids by GenScript USA Inc., Piscataway, NJ. The proteins were expressed and purified as described below. The full length biotinylated human KRAS4B G12D (His6-MBP-tev-Avi-Hs.KRAS4b G12D (2-188) protein was obtained from Dr Dominic Esposito and Dr. William Gillette from the NCI RAS Initiative at the Frederick National Laboratory. Avi-KRAS4b (2-188) G12D was cloned, expression and purified as described previously (1,2).
# Expression and purification of KRAS proteins: BL21 star (DE3) competent cells were transformed with pET-28a(+)-6His-KRAS (1-169) plasmids from GenScript, and the resulting colonies were picked under kanamycin selection. The colonies were grown in LB broth and induced with 0.5mM IPTG for 4 hours when OD reached 0.6-0.8. Bacteria pellets were lysed in 25mM Tris HCL (pH7.8) buffer containing 300mM NaCl, 5mM MgCl2, 10mM Imidazole, 5% Glycerol and 3mM β-mercaptoethanol. Membrane filter-cleared lysate supernatants were incubated with HisPur Ni-NTA resin (Thermo scientific) in an oscillating platform at 4°C for 50 minutes. Econo disposable column (Bio-Rad) was used for washing the beads 3 times with 25mM Tris HCl (pH7.8), 300mM NaCl, 5mM MgCl2, 5% Glycerol buffer with 10mM, 20mM and 30mM Imidazole, respectively. Elution was carried with 25mM Tris HCl (pH7.8), 300mM NaCl, 5mM MgCl2, 5% Glycerol and 500mM Imidazole buffer. After confirming the eluted fraction purity on SDS-PAGE gel, proteins fractions were further purified using HiLoad 16/600 superdex 75 PG column in AKTA system. Protein was eluted in 25mM Tris HCL (pH7.8), 150mM NaCl, 5mM MgCl2 and 0.5mM DTT. KRAS protein aliquots were stored in -80°C.
# GCP and NH-GDP nucleotide exchange for ITC: KRAS G12D protein in 25 mM Tris HCL (pH 8.0), 1 mM Calcium Chloride Dihydrate and 200 mM (NH4)2SO4 buffer was added to alkaline phosphatase beads (Sigma, USA) (2U per mg of KRAS) and to non-hydrolysable nucleotide analogs, GCP (β,γ-Methyleneguanosine 5′-triphosphate sodium salt, Sigma, USA) or GDP-NH (Guanosine 5′-[β-thio]diphosphate trilithium salt, Sigma, USA) in molar ratio of 10:1 (Nucleotide:KRAS). The reaction mixture was incubated with gentle rotation for 14-18 hrs at 4 °C. After incubation, the mixture was centrifuged at 1500 g, 4°C to remove the alkaline phosphatase beads. MgCl2 (20 mM) and an additional amount of GCP or NH-GDP in molar ratio of 5:1 (Nucleotide:KRAS) were added, and incubated at room temperature for 1 hr. After incubation, nucleotide exchanged protein was desalted and buffer exchanged at 4 °C using PD-10 column (Catalog # 17085101, GE Healthcare, USA), into a final buffer containing 25 mM Tris HCL (pH 7.5), 150 mM NaCl, 5 mM MgCl2 and 0.5 mM DTT. Buffer exchanged protein was concentrated using Amicon ultra centrifugal filter-10K cut off (Catalog # UFC501024, MilliporeSigma, USA). The protein concentration was measured using Pierce Rapid GOLD BCA Protein Assay Kit (Thermo Scientific, USA) and aliquots were stored in -80°C.
# T1 sequence (P01116 1-169 isoform P01116-2 G12D): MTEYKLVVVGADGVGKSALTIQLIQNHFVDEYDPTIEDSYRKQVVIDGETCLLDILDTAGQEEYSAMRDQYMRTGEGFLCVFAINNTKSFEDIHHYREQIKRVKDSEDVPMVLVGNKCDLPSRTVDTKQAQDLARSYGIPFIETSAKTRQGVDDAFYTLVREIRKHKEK
smiles,measurement,setting,value
COC(=O)C1C2C3(C)C(=O)C=CC2(OC3=O)C2CCC3(CBr)CC12CC3=O (stereo not drawn) [KRB-456],Kd,"KRAS G12D-NE (non-exchanged), 25°C",247 nM
same,Kd,NH-GDP-loaded KRAS G12D,479 nM
same,Kd,NH-GTP-loaded KRAS G12D,341 nM
